# In US6723364B1, “Fog treatment method using a liquid composition for treating fruits and vegetables and implementing device” (Xeda International, priority 1998, dated 2004):
# Experiments:
# Type in all cases: cell-based
# [1] = test system: Alternaria alternata; test: Fungicidal activity in vitro: mycelial growth on Cristomalt agar; conditions: AA
# Procedure: (§1) The Cristomalt medium used for the evaluations of the fungicidal activities comprises 0.1% of Cristomalt (malt extract) and 0.2% of agar.
# (§2) This culture medium is, after sterilization, brought to 55° C. The terpene compound tested is then introduced in the pure form into the culture medium under warm conditions. Immediately after agitating, the medium, enriched with the terpene product, is poured into Petri dishes (diameter 9 cm, filled with 20 ml of medium). The agar-comprising medium solidifies on cooling. The Petri dishes are then inoculated with plugs, with a diameter of 6 mm, withdrawn from the edge of a culture of the tested fungus, which culture is obtained on Cristomalt medium.
# (§3) Inoculation is carried out at 22° C.
# (§4) The mycelial growth was determined periodically (5 to 15 days, according to the species of fungus).
# (§5) The results are expressed in Table 3 below in terms of MIC, which is the content (in μg/ml) which makes it possible to obtain complete inhibition of mycelial growth.
# (§6) In f act, each experiment was carried out several times, so that, for each terpene and for each species of fungus, a minimum value and a maximum value were obtained.
# [2] = test system: Botrytis cinerea; test: as above; conditions: BC
# Procedure: as §1, §2, §3, §4, §5, §6
# [3] = test system: Fusarium oxysporum; test: as above
# Procedure: as §1, §2, §3, §4, §5, §6
# [4] = test system: Geocrichum candidum; test: as above; conditions: GC
# Procedure: as §1, §2, §3, §4, §5, §6
# [5] = test system: Gliocladium roseum; test: as above; conditions: GR
# Procedure: as §1, §2, §3, §4, §5, §6
# [6] = test system: Penicillium digitatum; test: as above; conditions: PD
# Procedure: as §1, §2, §3, §4, §5, §6
# [7] = test system: Penicillium expansum; test: as above; conditions: PE
# Procedure: as §1, §2, §3, §4, §5, §6
# [8] = test system: Phlyctaena vagabonda (“Gloeosporium”); test: as above; conditions: PV
# Procedure: as §1, §2, §3, §4, §5, §6
# [9] = test system: Phytophtora parasitica; test: as above; conditions: PhP
# Procedure: as §1, §2, §3, §4, §5, §6
# [10] = test system: species of fungus (AA, BC, FO, GC, GR, PD, PE, PV, PhP); test: Fungicidal activity in vitro: total of inhibition grades over the nine species of fungus; conditions: sum of the grades over the nine fungi
# Procedure: as §1, §2, §3, §4
# The results obtained are analysed simply by using the assessment scale illustrated in Table 2:
# The results obtained have been expressed in Table 3 using the scale in Table 2.
# [11] = test system: Alternaria alternata; test: Germination of the spores in vitro; conditions: AA;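 further: ++ germination like control and 0 no spores germinated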
# Procedure: (§7) The activity of eugenol and of isoeugenol on the germination of the spores was evaluated in vitro and compared with that of other terpenes.
# (§8) The procedure of Example 4 is used to do this, except that the concentration of eugenol and of isoeugenol was set at x μg/ml in the culture media used and that 50 μl of a suspension of spores, adjusted to 100,000 spores/ml, are deposited in each Petri dish.
# (§9) The same experiment was carried out starting with a terpene-free culture medium (control test).
# (§10) The results were evaluated using the following assessment criteria:
# (§11) +: considerable reduction in the level of spores germinated
# (§12) The results obtained for 3 different concentrations of terpenes in the culture medium, namely 40 μg/ml, 80 μg/ml and 1280 μg/ml, are listed in Tables 4, 5 and 6.
# [12] = test system: Botrytis cinerea; test: Germination of the spores in vitro; conditions: BC
# Procedure: as §7, §8, §9, §10, §11, §12
# [13] = test system: Fusarium oxysporum; test: Germination of the spores in vitro; conditions: FO;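 further: ++ germination like control and 0 no spores germinated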
# Procedure: as §7, §8, §9, §10, §11, §12
# [14] = test system: Penicillium digitatum; test: Germination of the spores in vitro; conditions: PD
# Procedure: as §7, §8, §9, §10, §11, §12
# [15] = test system: Penicillium expansum; test: Germination of the spores in vitro; conditions: PE;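 further: ++ germination like control and 0 no spores germinated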
# Procedure: as §7, §8, §9, §10, §11, §12
# [16] = test system: Phlyctaena vagabonda (“Gloeosporium”); test: Germination of the spores in vitro; conditions: PV;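 further: ++ germination like control and 0 no spores germinated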
# Procedure: as §7, §8, §9, §10, §11, §12
# [17] = test system: Phytophtora parasitica; test: Germination of the spores in vitro; conditions: PhP
# Procedure: as §7, §8, §9, §10, §11, §12
# [18] = test system: Erwinia carotovora; test: Bactericidal activity in vitro in LB agar medium; conditions: 28° C.
# Procedure: The bactericidal activity of eugenol and isoeugenol was evaluated in vitro and compared with that of other terpenes.
# The culture medium used is the following LB medium:
# Bactotryptone: 1% by weight
# Yeast extract: 0.5% by weight
# A suspension of bacteria at 10^6 CFU/ml was prepared in sterilized water from the LB medium. 200 μl of this bacterial suspension were added to 20 ml of presterilized LB culture medium brought to 55° C. The tested terpene is then added to the culture medium. After agitation, the medium is immediately divided among Petri dishes. The medium solidifies on cooling.
# Incubation is carried out at 28° C. when the bacterium is Erwinia carotovora and at 37° C. when the bacterium is Escherichia coli.
# The growth of mould in the culture medium is observed. The same experiment is carried out in the absence of terpene (control experiment).
# The results are evaluated using the following assessment scale:
# ++: mould growth identical to the control
# +: mould present with a marked reduction in growth with respect to the control
# : complete absence of growth.
# The results obtained for 3 different concentrations, namely 20, 80 and 320 μg/ml, in the case of the bacterium Erwinia carotovora are summarized in Table 7.
# The protocol used is that described above.
# [19] = MIC expressed on the scale of Table 2
# [20] = min-max range of several experiments, 22° C., read-out: MIC (content giving complete inhibition of mycelial growth)
smiles,measurement,setting,value
"C=C(C)C1CC=C(C)C(=O)C1 (centres unmarked) [CARVONE, carvone]",Inhibition grades,[1]; [19],6 (40-80)
same,MIC,"[1]; Alternaria alternata, min-max range of several experiments, 22° C., read-out: MIC (content giving complete inhibition of mycelial growth)",40 to 80 mg/L
same,Inhibition grades,[2]; [19],7 (20-40)
same,MIC,"[2]; Botrytis cinerea, min-max range of several experiments, 22° C., read-out: MIC (content giving complete inhibition of mycelial growth)",20 to 40 mg/L
same,MIC,"[3]; Fusarium oxysporum, FO, min-max range of several experiments, 22° C., read-out: MIC (content giving complete inhibition of mycelial growth)",40 to 80 mg/L
same,Inhibition grades,"[3]; OF, MIC expressed on the scale of Table 2",6 (40-80)
same,Inhibition grades,[4]; [19],5 (80-160)
same,MIC,[4]; [20],80 to 160 mg/L
same,MIC,"[5]; Clonostachys rosea, min-max range of several experiments, 22° C., read-out: MIC (content giving complete inhibition of mycelial growth)",40 to 80 mg/L
same,Inhibition grades,[5]; [19],6 (40-80)
same,Inhibition grades,[6]; [19],6 (40-80)
same,MIC,"[6]; Penicillium digitatum, min-max range of several experiments, 22° C., read-out: MIC (content giving complete inhibition of mycelial growth)",40 to 80 mg/L
same,Inhibition grades,[7]; [19],5 (80-160)
same,MIC,"[7]; Penicillium expansum, min-max range of several experiments, 22° C., read-out: MIC (content giving complete inhibition of mycelial growth)",80 to 160 mg/L
same,Inhibition grades,[8]; [19],5 (80-160)
same,MIC,[8]; [20],80 to 160 mg/L
same,Inhibition grades,[9]; [19],6 (40-80)
same,MIC,[9]; [20],40 to 80 mg/L
same,Total of the degrees of inhibition,[10],52
same,germination of the spores,[11]; x = 40 μg/ml,+
same,germination of the spores,[11]; x = 80 μg/ml,0
same,germination of the spores,[11]; x = 1280 μg/ml,0
same,germination of the spores,[12]; x = 40 μg/ml,+
same,germination of the spores,[12]; x = 80 μg/ml,0
same,germination of the spores,[12]; x = 1280 μg/ml,0
same,germination of the spores,[13]; x = 40 μg/ml,+
same,germination of the spores,[13]; x = 80 μg/ml,0
same,germination of the spores,[13]; x = 1280 μg/ml,0
same,germination of the spores,[14]; x = 40 μg/ml,+
same,germination of the spores,[14]; x = 80 μg/ml,0
same,germination of the spores,[14]; x = 1280 μg/ml,0
same,germination of the spores,[15]; x = 40 μg/ml,+
same,germination of the spores,[15]; x = 80 μg/ml,0
same,germination of the spores,[15]; x = 1280 μg/ml,0
same,germination of the spores,[16]; x = 40 μg/ml,+
same,germination of the spores,[16]; x = 80 μg/ml,0
same,germination of the spores,[16]; x = 1280 μg/ml,0
same,germination of the spores,[17]; x = 40 μg/ml,0
same,germination of the spores,[17]; x = 80 μg/ml,0
same,germination of the spores,[17]; x = 1280 μg/ml,0
same,growth in the culture medium with respect to the control,[18]; Concentration 20 μg/ml,++
same,growth in the culture medium with respect to the control,[18]; Concentration 80 μg/ml,+
same,growth in the culture medium with respect to the control,[18]; Concentration 320 μg/ml,−
same,MIC,"[18]; Pectobacterium carotovorum, Erwinia sp., read-out: MIC (concentration needed to completely inhibit the growth of the bacteria)",80 to 160 mg/L
